{"source": "patent US20240307500A1", "about": "“SUSTAINED RELEASE FORMULATION COMPOSITION COMPRISING SEMAGLUTIDE OR PHARMACEUTICALLY ACCEPTABLE SALT THEREOF” (PEPTRON, INC., priority 2021, published 2024)", "tested_on": "SD rats", "experiment": "Oral glucose tolerance test (OGTT), hypoglycemic effects after single SC injection", "type": "in vivo", "conditions": "single SC 0.123 mpk semaglutide", "method": "An oral glucose tolerance test (OGTT) was performed to confirm hypoglycemic effects of the sustained-release microspheres including semaglutide of the present invention. First, the experiment was conducted by dividing 8-week-old SD rats (18 rats; 6 rats in each group) into 3 groups. It was divided into a negative control group (Control), a positive control group (API) and Example 3 formulation administration group (PT403)), wherein the positive control group (API) was subcutaneously injected once with 0.123 mpk of semaglutide, and the Example 3 formulation administration group (PT403) was injected with the Example 3 formulation subcutaneously with 4 mpk.\nAfter drug administration, total 5 OGTTs (Days 1, 7, 16, 21 and 28) were performed, and 2 g/kg of glucose was orally administered to SD rats fasted for 18 hours. Immediately after glucose administration, and after 15, 30, 60, 90, 120, and 180 minutes, blood was collected from the tail to measure blood glucose."}
{"substance": "N^6,26-{18-[N-(17-carboxyheptadecanoyl)-L-γ-glutamyl]-10-oxo-3, 6, 12, 15-tetraoxa-9, 18-diazaoctadecanoyl}-[8-(2-amino-2-propanoic acid), 34-L-arginine] human glucan-like peptide 1 (7-37) [API]", "values": [{"measurement": "hypoglycemic effects (in words)", "result": "returned to normal on the 7th day"}]}
